Laboratory results as given in US20030216571A1, “Tricyclic compounds” (priority 1999, published 2003).
Each block holds one molecule with its values, some of them ahead of it.

Columns and labels:
Leukotriene D4 receptor = biological target: T1, Leukotriene D4 receptor (Cavia porcellus, UniProt Q2NNR5); assay: Leukotriene D4 receptor binding test; conditions: binding inhibition constant (Ki) vs [3H] LTD4 0.2 nM, lung cell membrane fraction from guinea pigs, 25° C. for 30 minutes; for Ki: read-out: pKi value (converted)
T1 construct: As a receptor sample, a lung cell membrane fraction from guinea pigs was used; from tissue; host or cells: lung membrane fraction of Hartley male guinea pigs
T1 sequence (Q2NNR5 1-340): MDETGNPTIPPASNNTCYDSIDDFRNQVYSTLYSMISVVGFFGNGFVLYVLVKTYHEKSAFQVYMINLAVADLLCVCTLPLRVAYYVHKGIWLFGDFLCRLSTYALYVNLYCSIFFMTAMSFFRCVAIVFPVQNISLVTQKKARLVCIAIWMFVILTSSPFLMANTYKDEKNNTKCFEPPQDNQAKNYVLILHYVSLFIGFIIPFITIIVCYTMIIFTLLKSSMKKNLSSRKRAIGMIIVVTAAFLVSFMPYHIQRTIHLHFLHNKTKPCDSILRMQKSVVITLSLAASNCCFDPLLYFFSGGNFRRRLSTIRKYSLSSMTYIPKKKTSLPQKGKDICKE
Experimental: Leukotriene D4 Receptor Binding Test
As a receptor sample, a lung cell membrane fraction from guinea pigs was used. Preparation of the membrane fraction was carried out according to the method of Ahn et al. (Eur. J. Pharmacol., 127, 153-155 (1986)). Lungs of Hartley male guinea pigs (400 to 500 g body weight, Nippon SLC Co.) were extracted, and perfused with a physiological saline, and then, adding 10 mM of PIPES, 10 mM of MgCl2 and 10 mM of CaCl2 buffer (pH 7.5) to the lung tissue and the mixture was homogenized. This homogenate was centrifuged at 70,000 xg for 10 minutes to obtain a membrane fraction.
Leukotriene D4 (LTD4) recepter binding test was carried out according to the method of Aharony, et al. (J. Pharmacol. Expl.Ther., 243, 921-926 (1987)). To 0.42 mg of the receptor sample were added 10 mM of PIPES, 10 mM of MgCl2 and 10 mM of CaCl2 buffer (pH 7.5) to make the total amount of 480 μl, and 10 μl of [^3H] LTD4 (NEN Life Science Products Co.) and 10 μl of a Test compound in dimethylsulfoxide were added to the mixture, and the resulting mixture was incubated at 25° C. for 30 minutes. The mixtures thus incubated were filtered through a glass fiber filter (Whatman Co., GF/C) using cell harvester (Brandel Co., M-30R). The filter were washed with 10 mM of Tris. and 100 mM of NaCl buffer (pH 7.5), and 5 ml of a liquid scintillator (NACALAI TESQUE INC., clearsol I), and radioactivity was measured by a liquid scintillation analyzer (Packard Co., 2000CA). When a dissociation constant (Kd) of LTD4 was to be obtained, [^3H] LTD4 with 0.03 to 0.5 nM was used, and 1 μM of non-radioactive LTD4 was added. When a binding inhibition constant (Ki) of the Test compound is to be meaured, [^3H] LTD4 with 0.2 nM was used. Kd and Ki are calculated according to the method of Bennett et al. (Neurotransmitter Receptor Binding, 2nd ed., edited by H. I. Yamamura et al., pp. 61-89, Raven Press (1985)).

[1] = test system: Leukotriene D4 induced respiratory constriction; assay: Leukotriene D4 induced respiratory constriction test; assay type: in vivo; conditions: p.o. 1 hr before i.v. LTD4; anesthetized Hartley male guinea pigs; respiratory inner pressure
Experimental: Leukotriene D4 Induced Respiratory Constriction Test
Respiratory constriction was measured by modifying the method of Konzett and Rossler (Arch. Exp. Pathol. Pharmakol., 195, pp. 71-74 (1940)). Hartley male guinea pigs (400 to 500 g body weight, Nippon SLC Co.) were anesthetized with pentobarbital (50 mg/kg, s.c.), and a cannula was inserted into the trachea to carry out artificial ventilation with an artificial ventilator (manufactured by Harvard Co., Model 683). An inner pressure of the respiratory tract was measured by a differential pressure transducer (Nihon Koden, TP-603T) connected to the respiratory cannula and it is used as an index of respiratory constriction.
LTD4 (0.03, 0.06, 0.13, 0.25, 0.5, 1 and 2 μg/kg, Sigma Co.) was intravenously administered from a cannula inserted into the right jugular vein from a low dose with an interval of 5 minutes to cause a respiratory constriction reaction and an increased amount of a respiratory inner pressure was measured. Test compound was suspended in 0.5% sodium carboxymethyl cellulose aqueous solution, and orally administered 1 hour before administration of LTD4. Animals were fasted for 24 hours before administration of the Test compound.
A2=(Dose of Compound administered)/{(ED50 of group to which Compound was added)/(ED50 of control group)−1}

Molecule: O=C(O)C(F)(F)F.O=C(O)CC1(CSC2c3cc(/C=C/c4ccc5cc(F)c(F)cc5n4)ccc3OCc3c(F)cccc32)CC1 (stereo not drawn) [Example 3, {1-[[2-[(E)-2-(6,7-difluoro-2-quinolinyl)ethenyl]-7-fluoro-6,11-dihydrodibenz[b,e]oxepin-11-yl]thiomethyl]cyclopropyl}acetic acid trifluoroacetic acid salt]
- Ki (Leukotriene D4 receptor): 158 pM
- A2 (dose of Test compound required for shifting two-times the LTD4 dose-reaction curve of control group to higher dose side) [1]: 3.6 µg/kg
- melting point: 174 to 179 °C

Molecule: O=C([O-])CCSC1c2ccccc2COc2ccc(/C=C/c3ccc4cc(F)c(F)cc4n3)cc21.[Na+] (stereo not drawn) [Example 5 (b), Sodium 3-{[2-[(E)-2-(6,7-difluoro-2-quinolinyl)ethenyl]-6,11-dihydrodibenz[b,e]oxepin-11-yl]thio}propionate]
- Ki (Leukotriene D4 receptor): 251 pM
- A2 (dose of Test compound required for shifting two-times the LTD4 dose-reaction curve of control group to higher dose side) [1]: 2.6 µg/kg
- melting point: 213 to 216 °C

Molecule: O=C([O-])CC1(CSC2c3ccccc3COc3ccc(/C=C/c4ccc5cc(F)c(F)cc5n4)cc32)CC1.[Na+] (stereo not drawn) [Example 7 (b), Sodium {1-[[2-[(E)-2-(6,7-difluoro-2-quinolinyl)ethenyl]-6,11-dihydrodibenz[b,e]oxepin-11-yl]thiomethyl]cyclopropyl}acetate]
- Ki (Leukotriene D4 receptor): 200 pM
- A2 (dose of Test compound required for shifting two-times the LTD4 dose-reaction curve of control group to higher dose side) [1]: 3.5 µg/kg
- melting point: 137 to 139 °C

Molecule: O=C(O)CCSC1c2cc(/C=C/c3ccc4cc(F)c(F)cc4n3)ccc2OCc2c(F)cccc21 (stereo not drawn) [Example 12, 3-{[2-[(E)-2-(6,7-difluoro-2-quinolinyl)ethenyl]-7-fluoro-6,11-dihydrodibenz[b,e]oxepin-11-yl]thio}propionic acid]
- Ki (Leukotriene D4 receptor): 158 pM
- A2 (dose of Test compound required for shifting two-times the LTD4 dose-reaction curve of control group to higher dose side) [1]: 4.9 µg/kg
- melting point: 224 to 227 °C

Molecule: N#Cc1cccc2c1COc1ccc(/C=C/c3ccc4cc(F)c(F)cc4n3)cc1C2SCCC(=O)[O-].[Na+] (stereo not drawn) [Example 13 (b), Sodium 3-{[7-cyano-2-[(E)-2-(6,7-difluoro-2-quinolinyl)ethenyl]-6,11-dihydrodibenz[b,e]oxepin-11-yl]thio}propionate]
- Ki (Leukotriene D4 receptor): 631 pM
- A2 (dose of Test compound required for shifting two-times the LTD4 dose-reaction curve of control group to higher dose side) [1]: 7.8 µg/kg
- melting point: 179 to 182 °C

Molecule: C#Cc1cccc2c1COc1ccc(/C=C/c3ccc4cc(F)c(F)cc4n3)cc1C2SCCC(=O)[O-].[Na+] (stereo not drawn) [Example 15, Sodium 3-{[2-[(E)-2-(6,7-difluoro-2-quinolinyl)ethenyl]-7-ethynyl-6,11-dihydrodibenz[b,e]oxepin-11-yl]thio}propionate]
- Ki (Leukotriene D4 receptor): 158 pM
- A2 (dose of Test compound required for shifting two-times the LTD4 dose-reaction curve of control group to higher dose side) [1]: 0.8 µg/kg
- melting point: 186 to 189 °C

Molecule: C[C@@H](CSC1c2ccccc2COc2ccc(/C=C/c3ccc4ccc(F)cc4n3)cc21)C(=O)[O-].[Na+] (stereo partly drawn) [Example 19, Sodium 3-{[2-[(E)-2-(7-fluoro-2-quinolinyl)ethenyl]-6,11-dihydrodibenz[b,e]oxepin-11-yl]thio}-2-(R)-methylpropionate]
- Ki (Leukotriene D4 receptor): 200 pM
- A2 (dose of Test compound required for shifting two-times the LTD4 dose-reaction curve of control group to higher dose side) [1]: 2.4 µg/kg
- melting point: 195 to 205 °C

Molecule: C[C@@H](CSC1c2ccccc2COc2ccc(/C=C/c3ccc4ccc(Cl)cc4n3)cc21)C(=O)[O-].[Na+] (stereo partly drawn) [Example 23, Sodium 3-{[2-[(E)-2-(7-chloro-2-quinolinyl)ethenyl]-6,11-dihydrodibenz[b,e]oxepin-11-yl]thio}-2-(R)-methylpropionate]
- Ki (Leukotriene D4 receptor): 501 pM
- A2 (dose of Test compound required for shifting two-times the LTD4 dose-reaction curve of control group to higher dose side) [1]: 5.7 µg/kg
- melting point: 207 to 217 °C

Molecule: O=C([O-])CCSC1c2ccccc2COc2ccc(/C=C/c3ccc4c(F)cc(F)cc4n3)cc21.[Na+] (stereo not drawn) [Example 32 (b), Sodium 3-{[2-[(E)-2-(5,7-difluoro-2-quinolinyl)ethenyl]-6,11-dihydrodibenz[b,e]oxepin-11-yl]thio}propionate]
- Ki (Leukotriene D4 receptor): 794 pM
- A2 (dose of Test compound required for shifting two-times the LTD4 dose-reaction curve of control group to higher dose side) [1]: 9.4 µg/kg
- melting point: 210 to 213 °C

Molecule: O=C([O-])CCSC1c2ccccc2COc2ccc(/C=C/c3ccc4c(F)c(F)c(F)cc4n3)cc21.[Na+] (stereo not drawn) [Example 34 (b), Sodium 3-{[2-[(E)-2-(5,6,7-trifluoro-2-quinolinyl)ethenyl]-6,11-dihydrodibenz[b,e]oxepin-11-yl]thio}propionate]
- Ki (Leukotriene D4 receptor): 631 pM
- A2 (dose of Test compound required for shifting two-times the LTD4 dose-reaction curve of control group to higher dose side) [1]: 7.7 µg/kg
- melting point: 235 to 237 °C

Molecule: O=C([O-])CC1(CSC2c3ccccc3COc3ccc(/C=C/c4ccc5c(F)c(F)c(F)cc5n4)cc32)CC1.[Na+] (stereo not drawn) [Example 35 (b), Sodium {1-[[2-[(E)-2-(5,6,7-trifluoro-2-quinolinyl)ethenyl]-6,11-dihydrodibenz[b,e]oxepin-11-yl]thiomethyl]cyclopropyl}acetate]
- Ki (Leukotriene D4 receptor): 398 pM
- A2 (dose of Test compound required for shifting two-times the LTD4 dose-reaction curve of control group to higher dose side) [1]: 6.6 µg/kg
- melting point: 195 to 198 °C

Molecule: O=C([O-])CCSC1c2ccccc2CCc2ccc(/C=C/c3ccc4cc(F)c(F)cc4n3)cc21.[Na+] (stereo not drawn) [Example 40, Sodium 3-{[3-[(E)-2-(6,7-difluoro-2-quinolinyl)ethenyl]-10,11-dihydro-5H-dibenz[a,d]cyclohepten-5-yl]thio}propionate]
- Ki (Leukotriene D4 receptor): 794 pM
- A2 (dose of Test compound required for shifting two-times the LTD4 dose-reaction curve of control group to higher dose side) [1]: 8.8 µg/kg
- melting point: 179 to 182 °C

- Ki (Leukotriene D4 receptor): 158 pM
Molecule: O=C([O-])CCCC1c2ccccc2COc2ccc(/C=C/c3ccc4cc(F)c(F)cc4n3)cc21.[Na+] (stereo not drawn) [Example 51 (c), Sodium 4-[2-[(E)-2-(6,7-difluoro-2-quinolinyl)ethenyl]-6,11-dihydrodibenz[b,e]oxepin-11-yl]butanoate]
- A2 (dose of Test compound required for shifting two-times the LTD4 dose-reaction curve of control group to higher dose side) [1]: 3.6 µg/kg

- Ki (Leukotriene D4 receptor): 501 pM
Molecule: CC(C)(CC(=O)O)SC1c2ccccc2COc2ccc(/C=C/c3ccc4cc(F)c(F)cc4n3)cc21 (stereo not drawn) [Example 58, 3-{[2-[(E)-2-(6,7-difluoro-2-quinolinyl)ethenyl]-6,11-dihydrodibenz[b,e]oxepin-11-yl]thio}-3-methylbutanoic acid]
- A2 (dose of Test compound required for shifting two-times the LTD4 dose-reaction curve of control group to higher dose side) [1]: 6.4 µg/kg

Molecule: Sodium [2-[(E)-2-(6,7-difluoro-2-quinolinyl)ethenyl]-6,11-dihydrodibenz[b,e]oxepin-11-yl]thioacetate [Example 4]
- pKi value (Leukotriene D4 receptor): 9.8
- A2 (dose of Test compound required for shifting two-times the LTD4 dose-reaction curve of control group to higher dose side) [1]: 3.7 µg/kg
